Laboratory results as given in patent US11242344B2, “(4-hydroxypyrrolidin-2-yl)-heterocyclic compounds and methods of use thereof” (Genentech, Inc., priority 2017, dated 2022).

Assays:
MYC expression = assay: Inhibition of MYC expression in MV-4-11 cells; assay type: cell-based; conditions: 4 h; for IC50: QuantiGene 2.0, geometric mean; for Maximum Inhibition (%): maximum inhibition of MYC expression
Method: Pharmacologic inhibition of MYC is achievable through targeting BET bromodomains through small molecule binder or degrader mechanisms. Such inhibitors may have clinical utility given the widespread pathogenetic role of MYC in cancer. See, e.g., Mertz J, et al., “Targeting MYC dependence in cancer by inhibiting BET bromodomains,” (2011) Proc. Natl. Acad. Sci. USA, Vol. 108 (40), pp. 16669-16674.
To determine the inhibition of MYC expression, MV-4-11 cells (ATCC) were plated at 10,000 cells per well in 96-well plates in RPMI1640 media supplemented with 10% fetal bovine serum and 2 mM L-glutamine. Test compounds diluted in DMSO were transferred to the cell plates, keeping final DMSO concentration consistent at 0.1%, and incubated for 4 h at 37° C. Lysis and analysis for MYC expression were carried out using QuantiGene 2.0 reagents (Affymetrix/eBioscience, probe set cat #SA-50182) and following the vendor's instructions. Luminescence was read using an EnVision plate reader (PerkinElmer) and IC50s generated in Genedata Screener using a 4-parameter non-linear regression fit.
Effective degraders will surpass this and inhibit >95% of MYC, thus following the maximum inhibition within this assay provides valuable SAR. Where more than one measurement was performed for the same assay, the value reported is the geometric mean of all values.

BRD4 = BRD4 (Homo sapiens (Human), UniProt O60885); assay: BRD4 degradation assay in PC3 (Steap-1) prostate cancer cells, high content fluorescence imaging; assay type: cell-based; conditions: PC3 (Steap-1) cells, 4 hours; for DC50: BRD4 immunofluorescence, read-out: PC3 (Steap-1) EC50; for PC3 (Steap-1) Sinf (%): maximum degradation, percent change in protein level (-100% = complete loss)
Method: PC3 (Steap-1) prostate cancer cells: PC3 (Steap-1) prostate cancer cells (PC3 cells overexpressing the surface protein Steap-1) were seeded on day 1 at a density of 200,000 cells/mL in 45 μl/well in cell plates in a 384 well Greiner/Perkin Elmer Cell Carrier TC Treated plate (part #6007430) in Assay Medium (RPMI, 10% FBS, 2 mM Glutamax). Cells were incubated overnight at 37° C. degrees. On day 2, compounds were serially diluted 3-fold in DMSO spanning the concentrations 10 mM to 8.6 nM, in 384 well clear polypropylene plates (Greiner Cat #781201). DMSO and 10 mM of a control PROTAC (dBET1, as described in WO 2017/024317, p. 235, structure below) (control compound) were added to designated wells. Compounds and controls were diluted 50-fold (2 μl of DMSO stock into 98 μl) into Assay Medium. 5 μl of the diluted compounds was transferred to the cell plates. The final top concentration of the test compounds in the cell plates was 20 μM. Cell plates were incubated at 37° C., for 4 hours. Fixation and permeabilization were carried out using a Biotek EL406 plate washer and dispenser as follows. Cells were fixed by addition of 15 μL of 16% paraformaldehyde (Electron Microscopy Sciences #15710-S) directly to the 50 μL cell culture medium in each well using the peristaltic pump 5 μL cassette on a Biotek EL406 (final concentration of formaldehyde was 3.7% w/v). Samples were incubated 30 minutes. Well contents were aspirated and 50 μL/well of Phosphate Buffered Saline (PBS) containing 0.5% w/v bovine serum albumen, 0.5% v/v Triton X-100 (Antibody Dilution Buffer) was added to each well. Samples were incubated for 30 minutes. Well contents were aspirated and washed 3 times with 100 μL/well of PBS.
For both the PC3 and EOL-1 cell assays, immunofluorescence staining of BRD4 was carried out using a Biotek EL406 plate washer and dispenser as follows. The well supernatant was aspirated from the wells and 25 μL/well of rabbit mAb Anti-BRD4 [EPR5150(2)] abeam 128874 diluted 1:500 in Antibody Dilution Buffer is dispensed. Samples were incubated for 2 hours at room temperature. Samples were washed 4 times with 100 μL/well of PBS. 25 μL/well of secondary antibody solution (Goat Anti-Rabbit IgG, DyLight 488 Conjugated Highly Cross-adsorbed #35553 1:1000) diluted 1:1000 and Hoechst 33342 1 μg/ml diluted in Antibody Dilution Buffer) were dispensed into each well. 16 wells of the plate, which were designated as ‘no primary antibody” wells, received only Antibody Dilution Buffer (without anti-BRD4 antibody). Samples were incubated for 2 hours at room temperature. Samples were washed 3 times with 100 μL/well of PBS using a Biotek EL406. Quantitative fluorescence imaging of BRD4 was carried out using a Phenix (Perkin Elmer). Fluorescence images of the samples (Channel 1: Hoechst33342 (DNA stain); Channel 2: 488 nm (BRD4 stain)) were acquired. Channel 1 (DNA stain) was used to define the “Region of Interest” (ROI) nuclear region. Measurements of BRD4 average immunofluorescence intensity within the ROI (nuclear region), were made on a per cell basis and averaged over all the measured cells. Data analysis was carried out using Genedata Screener Software, with DMSO and “no primary antibody” samples being used to define the 0% and 100% changes in BRD4. The “Robust Fit” method was used to define the inflexion point of curve (EC50) and the plateau of the maximal effect (Sinf). The Sinf value reports degradation as percent change in protein level, so complete loss of the protein target is −100%. […]

SMILES | IC50 (MYC expression) | Maximum Inhibition (%) (MYC expression) | DC50 (BRD4) | PC3 (Steap-1) Sinf (%) (BRD4)
Cc1ncsc1-c1ccc([C@]2(C)NC(C3C[C@@H](O)CN3C(=O)C(c3cc(OCCCCCNC(=O)c4cc5c(cc4CS(C)(=O)=O)-c4cn(C)c(=O)c6[nH]cc(c46)CN5c4ncc(F)cc4F)no3)C(C)C)=NC2=O)cc1 (single isomer, unassigned) [Example 1001.1] | 17.4 nM | 82.3% | > 20000 nM | 
Cc1ncsc1-c1ccc([C@]2(C)NC(C3C[C@@H](O)CN3C(=O)C(c3cc(OCCCCCNC(=O)c4cc5c(cc4CS(C)(=O)=O)-c4cn(C)c(=O)c6[nH]cc(c46)CN5c4ncc(F)cc4F)no3)C(C)C)=NC2=O)cc1 (single isomer, unassigned) [Example 1001.3] | 27.4 nM | 79.2% | 140 nM | −29.0%
Cc1ncsc1-c1ccc([C@]2(C)NC(C3C[C@@H](O)CN3C(=O)C(c3cc(OCCCCCNC(=O)c4cc5c(cc4CS(C)(=O)=O)-c4cn(C)c(=O)c6[nH]cc(c46)CN5c4ncc(F)cc4F)no3)C(C)C)=NC2=O)cc1 (single isomer, unassigned) [Example 1001.2] | 1.71 nM | 98.4% | 3.3 nM | −97.2%
